Consider 2 compounds from patent publication EP0930314A1, “p-TOLUENESULFONATE HYDRATE OF THIAZOLINE COMPOUND” (TAISHO PHARMACEUTICAL CO. LTD, priority 1996, dated 1998).

In data set [1] the test system is Blood platelet aggregation. Kind of data set: Human in vitro blood platelet aggregation inhibition test (ADP-induced, PRP). Format: cell-based. The following applies: ADP final concentration 7 µM, concentration to inhibit the maximum aggregation by 50 %. As for the experimental part: Citrated blood (the volume ratio of 3.13 % sodium citrate solution to blood is 1:9) was collected from the cubital vein of a healthy human who had not been received any drugs known to affect the function of blood platelet within 2 weeks prior to starting the test. The blood was centrifuged at 120 x g at room temperature for 15 minutes to give platelet rich plasma (PRP) as a supernatant, and further centrifuged at 1500 x g for 10 minutes to give platelet poor plasma (PPP) as a supernatant.
The blood platelet counts of PRP were adjusted to 50 ― 60 x 10^4/µL by diluting with PPP.
Blood platelet aggregation was monitored according to the method of Born G.V.R., [Nature, vol. 194, page 927 (1962)] using adenosine diphosphate (produced by Sigma Co.; hereinafter referred to as "ADP") as an aggregation-inducing substance. That is, a solution of Compound 1 or dihydrate of the compound of Formula (1) as a test drug in dimethyl sulfoxide was adjusted to the desired concentration with a physiological saline solution. […] The mixture was monitored for 5 minutes by using a blood platelet aggregation ability measurement apparatus (Aggricoda TM · PA-3210; made by Kyoto Daiichi Kagaku Co.) and the concentration of the test drug to inhibit the maximum aggregation by 50 % was calculated.

Data set [2] addresses T1, Purified GPIIb/IIIa receptor (Homo sapiens, UniProt P05106+P08514).
T1 construct: from tissue; the cited Pytela method purifies the receptor from platelet extracts (own knowledge)
Kind of data set: Fibrinogen receptor (GPIIb/IIIa) binding inhibition test (solid-phase, ELISA detection of bound fibrinogen). As to conditions: inhibition of fibrinogen (2 µg/ml) binding to solid phased purified GPIIb/IIIa, 4°C, 16 hours. As for the experimental part:
Purified GPIIb/IIIa was prepared by referring to the methods of Pytela et al (Science, 231 (1986) 1559) and a binding measurement system of solid phased GPIIb/IIIa was carried out by referring to the method of Kouns et al (Blood, 80 (1992) 2539).
Purified GPIIb/IIIa receptor was solidified on 96-well microtiter plates by reacting in a solution (pH 7.4) containing 20 mM Tris-hydrochloric acid, 150 mM sodium chloride, 1 mM calcium chloride, 1 mM magnesium chloride and 0.0005 % Triton X-100 at 4°C for 16 hours. The solid phase was then washed once with a solution (pH 7.4) containing 20 mM Tris-hydrochloric acid, 150 mM sodium chloride, 1 mM calcium chloride, 1 mM magnesium chloride and 0.05 % Tween 20 (Buffer B), and blocked by a solution (pH 7.4) containing 20 mM Tris-hydrochloric acid, 150 mM sodium chloride, 1 mM calcium chloride, 1 mM magnesium chloride and 25 % Block Ace in an amount of 150 µL/well at room temperature for 2 hours. […] The amount of the fibrinogen bound to the plates was measured by an enzyme-linked immunosorbent assay method using antifibrinogen primary antibody and peroxidase-labelled secondary antibody to calculate IC50 value. […]
In general terms: An ELISA detects its analyte on a solid surface through an enzyme-linked reagent.

Data set [3] is described as follows: Hygroscopicity test (change rate of weight after storage at defined relative humidity). As to conditions: statement in words; test at 25°C, storage for 30 days, numeric data only in Fig 1. Format: physicochemical. As for the experimental part:
Compound 1 obtained in the above example and dihydrate of the compound of Formula (1) were used as test drugs. About 100 mg of the test drug was taken into a weighing bottle and weighed accurately. The weighed test drug in the weighing bottle was stored at 25°C in a decicator which was adjusted to the defined relative humidity by using a desired saturated salt solution or a thermo-hygrostat (Tabaiestec SH-220) which was adjusted to the proper relative humidity.
After storage for 30 days, the test drug was weighed, and the change rate of weight was calculated to use as an index of hygroscopicity.

T1 sequence (P08514 32-887 limits assumed): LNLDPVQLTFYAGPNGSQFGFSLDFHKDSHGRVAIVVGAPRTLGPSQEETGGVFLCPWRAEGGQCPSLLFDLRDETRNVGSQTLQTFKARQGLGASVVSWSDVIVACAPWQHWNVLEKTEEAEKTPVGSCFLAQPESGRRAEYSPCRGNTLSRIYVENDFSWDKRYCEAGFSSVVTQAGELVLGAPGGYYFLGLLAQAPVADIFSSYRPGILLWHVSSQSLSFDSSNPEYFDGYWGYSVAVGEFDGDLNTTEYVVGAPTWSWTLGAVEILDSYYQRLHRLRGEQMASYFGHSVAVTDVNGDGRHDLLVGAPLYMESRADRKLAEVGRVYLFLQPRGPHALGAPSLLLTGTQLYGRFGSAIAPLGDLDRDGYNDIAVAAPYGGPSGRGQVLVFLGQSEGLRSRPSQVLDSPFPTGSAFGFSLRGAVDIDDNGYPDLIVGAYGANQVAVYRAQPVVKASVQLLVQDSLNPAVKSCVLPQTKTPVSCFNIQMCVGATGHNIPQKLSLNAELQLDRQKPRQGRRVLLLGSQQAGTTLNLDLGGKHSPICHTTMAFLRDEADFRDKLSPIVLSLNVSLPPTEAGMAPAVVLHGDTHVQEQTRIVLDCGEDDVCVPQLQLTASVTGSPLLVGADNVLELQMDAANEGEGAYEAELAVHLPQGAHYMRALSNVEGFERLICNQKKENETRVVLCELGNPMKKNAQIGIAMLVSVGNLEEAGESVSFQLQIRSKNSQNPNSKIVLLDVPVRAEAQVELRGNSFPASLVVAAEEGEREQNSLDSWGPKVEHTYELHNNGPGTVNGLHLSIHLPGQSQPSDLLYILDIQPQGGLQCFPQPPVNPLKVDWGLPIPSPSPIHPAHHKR
T1 sequence (P08514 891-1039 limits assumed): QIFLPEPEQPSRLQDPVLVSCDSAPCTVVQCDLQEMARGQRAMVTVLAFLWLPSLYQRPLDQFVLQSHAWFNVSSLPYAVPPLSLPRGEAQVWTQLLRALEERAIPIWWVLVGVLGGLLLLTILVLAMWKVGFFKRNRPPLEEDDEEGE
T1 sequence (P05106 27-788): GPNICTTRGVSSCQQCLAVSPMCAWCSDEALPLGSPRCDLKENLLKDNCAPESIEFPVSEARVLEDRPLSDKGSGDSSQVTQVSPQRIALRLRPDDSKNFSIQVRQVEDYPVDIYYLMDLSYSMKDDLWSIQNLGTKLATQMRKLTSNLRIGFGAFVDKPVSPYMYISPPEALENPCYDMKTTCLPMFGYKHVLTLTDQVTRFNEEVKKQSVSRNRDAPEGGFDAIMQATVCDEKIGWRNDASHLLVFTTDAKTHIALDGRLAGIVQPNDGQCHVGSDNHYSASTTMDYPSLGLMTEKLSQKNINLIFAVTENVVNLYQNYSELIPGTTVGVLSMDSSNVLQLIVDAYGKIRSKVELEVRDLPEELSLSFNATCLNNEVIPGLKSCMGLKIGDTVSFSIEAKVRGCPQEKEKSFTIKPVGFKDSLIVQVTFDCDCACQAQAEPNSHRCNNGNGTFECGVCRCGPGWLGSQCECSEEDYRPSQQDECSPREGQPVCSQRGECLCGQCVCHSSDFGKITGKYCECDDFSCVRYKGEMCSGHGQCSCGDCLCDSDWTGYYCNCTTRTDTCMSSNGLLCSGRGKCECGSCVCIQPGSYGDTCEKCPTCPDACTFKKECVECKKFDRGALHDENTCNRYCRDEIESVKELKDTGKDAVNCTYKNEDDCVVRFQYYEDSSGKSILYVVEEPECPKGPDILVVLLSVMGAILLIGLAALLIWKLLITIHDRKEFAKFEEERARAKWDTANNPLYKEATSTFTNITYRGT

Regarding `Cc1c(C(=O)NCCC(=O)O)sc(=NC(=O)c2ccc(C(=N)N3CCC4(CC3)OCCO4)cc2)n1C` [Compound 1, N-(2-carboxyethyl)-2-{4-[(4,4-ethylenedioxy)piperidin-1-yl]imidoylbenzoylimino}-3,4-dimethyl-3H-thiazoline-5-carboxamide p-toluenesulfonate dihydrate], the half-maximal inhibitory concentration (IC50) – broadly, the concentration that gives 50% inhibition – in data set [1] (Homo sapiens, Platelet) turned out to be 22.1 nM; in data set [2], 0.0805 nM. Moreover, in data set [3], the hygroscopicity entry is reported as “non-hygroscopic”.

In data set [1], `Cc1c(C(=O)NCCC(=O)O)sc(=NC(=O)c2ccc(C(=N)N3CCC4(CC3)OCCO4)cc2)n1C` [Dihydrate of the compound of Formula (1), reference compound] registered an IC50 of 21.1 nM.
